One assay deals with CLK2 kinase (Homo sapiens, UniProt P49760). Briefly: CLK2 kinase activity assay (Z-lyte FRET).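 Further: FRET read-out as coumarin to fluorescein emission ratio, unphosphorylated peptide as 0% and phosphorylated peptide as 100% controls, duplicate reactions, non-linear regression fit of dose-response curves.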 It is filed as biochemical. The following applies: Z-lyte Ser/Thr 6 peptide, 60 μM ATP, 1 h at room temperature.
Another assay has as its target CLK3 kinase (Homo sapiens, UniProt P49761). The assay can be described thus: CLK3 kinase activity assay (Z-lyte FRET).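 Further: kinase activity read as coumarin/fluorescein emission ratio by FRET, unphosphorylated peptide as 0% and phosphorylated peptide as 100% control, values from non-linear regression of dose-response curves.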 It is filed as biochemical. The following applies: Z-lyte Ser/Thr 18 peptide, 156 μM ATP, 1 h at room temperature.
Assay [1] deals with primary human mesenchymal stem cells (hMSCs). The assay can be described thus: Chondrogenesis screening using primary human mesenchymal stem cells. It is filed as cell-based. The following applies: Homo sapiens, Mesenchymal stem cells, hMSC chondrogenesis; for EC50: concentration required to induce 50% levels of chondrogenesis with TGF-β3 as positive control, read-out: Conc (nM) of 50% TGF-β3 activity; for Emax: maximum activity relative to TGF-β3 (10 ng/mL) positive control, read-out: Max. Activity as % TGF-β3 activity. The gist of the method: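 Primary hMSCs at passage 3–6 were treated across compound concentrations, with TGF-β3 as positive control. Chondrogenic nodule area per well was normalized to 3 DMSO wells on the same plate (fold over DMSO, 2–3 replicates). EC50, maximum activity and the dose reaching it were derived.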

Assay [2] deals with Wnt pathway activity (SW480 colon carcinoma cells stably expressing the Sp5-Luc reporter). The assay can be described thus: Wnt pathway activity screening assay (Sp5-Luc reporter gene assay). The following applies: Homo sapiens, SW480, Table 4; SW480 cells stably expressing Sp5-Luc reporter, 10-point dose-response from 10 μM, 36 to 48 hours. A general note: In a reporter assay the amount or activity of a reporter protein is the signal.

This passage reports EC50 and Emax results from patent US20230000842A1, “METHODS OF TREATING CARTILAGE DISORDERS THROUGH INHIBITION OF CLK AND DYRK” (SAMUMED, LLC, priority 2019, published 2023).

The structures appear in SMILES notation.

Sequence of CLK3 kinase (P49761 whole entry): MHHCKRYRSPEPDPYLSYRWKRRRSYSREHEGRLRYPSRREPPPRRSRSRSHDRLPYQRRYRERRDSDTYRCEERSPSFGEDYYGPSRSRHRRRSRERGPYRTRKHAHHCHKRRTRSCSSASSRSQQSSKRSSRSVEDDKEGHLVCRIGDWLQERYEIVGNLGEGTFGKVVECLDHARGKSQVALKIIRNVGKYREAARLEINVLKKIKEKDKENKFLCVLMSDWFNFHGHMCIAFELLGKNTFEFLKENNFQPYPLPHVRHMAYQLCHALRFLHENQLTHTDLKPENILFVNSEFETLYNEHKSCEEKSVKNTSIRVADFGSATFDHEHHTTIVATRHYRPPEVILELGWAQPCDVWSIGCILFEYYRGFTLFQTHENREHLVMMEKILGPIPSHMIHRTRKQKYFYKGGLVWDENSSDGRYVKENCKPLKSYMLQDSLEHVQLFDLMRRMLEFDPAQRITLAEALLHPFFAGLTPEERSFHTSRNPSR
Sequence of CLK2 kinase (P49760 whole entry): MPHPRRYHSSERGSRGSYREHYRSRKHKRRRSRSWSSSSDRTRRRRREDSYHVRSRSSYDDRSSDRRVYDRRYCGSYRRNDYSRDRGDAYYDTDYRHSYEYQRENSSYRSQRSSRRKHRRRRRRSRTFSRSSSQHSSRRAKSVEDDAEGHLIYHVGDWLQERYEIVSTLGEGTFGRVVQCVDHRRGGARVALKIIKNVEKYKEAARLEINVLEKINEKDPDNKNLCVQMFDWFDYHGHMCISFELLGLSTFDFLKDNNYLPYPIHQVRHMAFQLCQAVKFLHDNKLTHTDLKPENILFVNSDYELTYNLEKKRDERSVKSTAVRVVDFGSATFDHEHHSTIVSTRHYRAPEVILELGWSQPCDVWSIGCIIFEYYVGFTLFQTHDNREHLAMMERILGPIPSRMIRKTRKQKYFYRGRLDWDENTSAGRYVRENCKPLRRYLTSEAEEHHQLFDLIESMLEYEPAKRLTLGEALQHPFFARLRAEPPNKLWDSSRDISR

For `C[C@@H]1CN(c2ccc(NC(=O)c3n[nH]c4ccc(-c5cncc(CN6CCCCC6)c5)cc34)cn2)C[C@H](C)O1` [compound 92], the EC50 at CLK2 kinase was 1 nM; at CLK3 kinase, 89 nM; in assay [1], 2700 nM; in assay [2], 2.8 nM. Moreover, in assay [1], the Emax came out at 129%.

Regarding `Cc1ncc(-c2ccc3[nH]nc(-c4nc5c(-c6cccc(F)c6)cccc5[nH]4)c3n2)n1C` [compound 158], the EC50 at CLK2 kinase turned out to be 3 nM; at CLK3 kinase, 83 nM; in assay [1] it was 10 nM; in assay [2], 150 nM. In addition, in assay [1], the Emax came to 112%.

Consider `CCC(=O)Nc1cncc(-c2cnc3[nH]nc(-c4cc5cnccc5[nH]4)c3c2)c1` [compound 418], for which the EC50 at CLK2 kinase turned out to be 2 nM; on CLK3 kinase it was 41 nM; in assay [2], 960 nM. The Emax in assay [1] came out at 16.9%.

Turning to `CN1CCN(c2nccc3[nH]c(-c4n[nH]c5ccc(-c6cncc(CN7CCCCC7)c6)nc45)cc23)CC1` [compound 496], the EC50 was 6 nM on CLK2 kinase, 524 nM on CLK3 kinase, 10 nM in assay [1] and 4160 nM in assay [2]. In addition, the Emax in assay [1] came to 70.8%.

In the case of `CC(C)C(=O)Nc1cncc(-c2cc3c(-c4cc5c(-c6cc(F)cc(CNS(C)(=O)=O)c6)nccc5[nH]4)n[nH]c3cn2)c1` [compound 520], the EC50 on CLK2 kinase is 3 nM; at CLK3 kinase, 75 nM; in assay [1], 30 nM; in assay [2] it was > 10000 nM. The Emax in assay [1] came out at 79.5%.

Regarding `O=C(Cc1ccccc1)Nc1cncc(-c2ccc3[nH]nc(-c4nc5c(-c6ccoc6)cncc5[nH]4)c3c2)c1` [compound 234], the EC50 amounted to 6 nM at CLK2 kinase, 120 nM at CLK3 kinase, 30 nM in assay [1] and 33 nM in assay [2]. Further, in assay [1], the Emax was 102%.

`O=C(Nc1cncc(-c2ccc3[nH]nc(-c4nc5c(-c6ccc(Cl)s6)cncc5[nH]4)c3n2)c1)C1CCC1` [compound 268]: the EC50 on CLK2 kinase was found to be 12 nM; at CLK3 kinase, 145 nM; in assay [1], 30 nM; in assay [2], 800 nM. The Emax in assay [1] turned out to be 67.9%.

As to `Cn1cc(-c2cnc3[nH]nc(-c4nc5c(-c6cccc(F)c6)nccc5[nH]4)c3c2)cn1` [compound 155], the EC50 at CLK2 kinase turned out to be 14 nM; on CLK3 kinase it was 138 nM; in assay [1] it was 30 nM; in assay [2], 11.1 nM. Moreover, the Emax in assay [1] was 74.9%.

Regarding `O=C(Nc1cncc(-c2ccc3[nH]nc(-c4nc5c(-c6ccccc6F)cccc5[nH]4)c3n2)c1)C(F)(F)F` [compound 175], the EC50 turned out to be 5 nM at CLK2 kinase, 180 nM on CLK3 kinase and 823 nM in assay [2]. Also, the Emax in assay [1] turned out to be 40.1%.

As for `CN(C)Cc1cncc(-c2ccc3[nH]nc(-c4nc5c(-c6cccc(F)c6)nccc5[nH]4)c3n2)c1` [compound 138], the EC50 on CLK2 kinase is 1 nM; at CLK3 kinase, 197 nM; in assay [1], 30 nM; in assay [2] it was 1050 nM. Besides, the Emax in assay [1] was found to be 75.6%.

`CC(C)(C)CC(=O)Nc1cncc(-c2cc3c(-c4cc5c(-c6ccccc6F)nccc5[nH]4)n[nH]c3cn2)c1` [compound 327]: the EC50 at CLK2 kinase worked out at 10 nM; on CLK3 kinase, 414 nM; in assay [1] it was 30 nM; in assay [2] it was 1030 nM. In addition, the Emax in assay [1] is 54.3%.

On to `CCC(=O)Nc1cncc(-c2ccc3[nH]nc(-c4nc5c(-c6cccc(F)c6)ccnc5[nH]4)c3n2)c1` [compound 121], for which the EC50 at CLK2 kinase is 3 nM; on CLK3 kinase, 30 nM; in assay [2] it was > 10000 nM. For the same compound, in assay [1], the Emax was 29.3%.

Consider `CCCCC(=O)Nc1cncc(-c2cnc3[nH]nc(-c4cc5c(-c6ccncc6)cncc5[nH]4)c3c2)c1` [compound 386], for which the EC50 was 8 nM at CLK2 kinase, 201 nM on CLK3 kinase and > 10000 nM in assay [2]. Further, the Emax in assay [1] stood at 70.4%.
